Reference: patent US5405873A, “Substituted acetamide derivatives” (Banyu Pharmaceutical Co., Ltd., priority 1992, dated 1995)

Test system: ACAT
Experiment: ACAT inhibitory activity (rabbit liver microsomal fraction)
Type: biochemical, Japanese-White Rabbit
Conditions: [1-14C]oleyl-CoA and exogenous cholesterol
Description: Enzyme specimen ACAT is prepared from liver microsomal fraction of Japanese-White Rabbit in accordance with the method described in Smith et al., Clinica Chimica Acta, 158, 271 (1986). The ACAT activity is determined by measuring the amount of labeled cholesterol esters from [1-^14 C]oleyl-CoA and exogenous cholesterol also according to the method of Smith et al., ibid. Thus, inhibition rates (%) of the compounds of the present invention against ACAT at a concentration of 0.3 μM are shown in the following table, together with the results of Melinamide (N-(α-methylbenzyl)linoleamide) and YM-17E (1,3-bis[[1-cycloheptyl-3-(p-dimethylaminophenyl)ureido]methyl]-benzene dihydrochloride), as reference compounds, measured at the same time.

Row | SMILES | Inhibition Rate at 0.3 μM [%]
1 | CCCCCN(C/C=C/C#CC(C)(C)C)CCNC(=O)CSc1cccc2ccccc12 [Example 1, (E)-N-[2-[N'-Pentyl-(6,6-dimethyl-2-hepten-4-ynyl)amino]ethyl]-(1-naphthylthio)acetamide] | 70
2 | CCCCCN(CC#CC#CC(C)(C)C)CCNC(=O)CSc1cccc2ccccc12 [Example 2, N-[2-[N'-Pentyl-(6,6-dimethyl-2,4-heptadiynyl)amino]ethyl]-(1-naphthylthio)acetamide] | 76
3 | CCCCCN(CCCC#CC(C)(C)C)CCNC(=O)CSc1cccc2ccccc12 [Example 3, N-[2-[N'-Pentyl-(6,6-dimethyl-4-heptynyl)amino]ethyl]-(1-naphthylthio)acetamide] | 68
4 | CCCCCN(CC#CC#CC(C)(C)C)CCNC(=O)CSc1ccc2ccccc2c1 [Example 4, N-[2-[N'-Pentyl-(6,6-dimethyl-2,4-heptadiynyl)amino]ethyl]-(2-napthylthio)acetamide] | 78
5 | CCCCCN(CC#CC#CC(C)(C)C)CCNC(=O)CSc1ccc(C)c(C)c1 [Example 10, N-[2-[N'-Pentyl-(6,6-dimethyl-2,4-heptadiynyl)amino]ethyl]-(3,4-dimethylphenylthio)acetamide] | 84
6 | CCCCCN(CC#CC#CC(C)(C)C)CCNC(=O)CSc1c(C)cccc1C [Example 11, N-[2-[N'-Pentyl-(6,6-dimethyl-2,4-heptadiynyl)amino]ethyl]-(2,6-dimethylphenylthio)acetamide] | 87
7 | CCCCCN(CC#CC#CC(C)(C)C)CCNC(=O)CSc1ccc2oc3ccccc3c2c1 [Example 24, N-[2-[N'-Pentyl-(6,6-dimethyl-2,4-heptadiynyl)amino]ethyl]-(2-dibenzofuranylthio)acetamide] | 64
8 | CCCCCN(CC#CC#CC(C)(C)C)CCNC(=O)CSc1c2ccccc2cc2ccccc12 [Example 26, N-[2-[N'-Pentyl-(6,6-dimethyl-2,4-heptadiynyl)amino]ethyl]-(9-anthrylthio)acetamide] | 66
9 | CCCCCN(CC#CC#CC(C)(C)C)CCNC(=O)C[S+]([O-])c1cccc2ccccc12 (stereo not shown) [Example 29, N-[2-[N'-Pentyl-(6,6-dimethyl-2,4-heptadiynyl)amino]ethyl]-(1-naphthylsulfinyl)acetamide] | 70
10 | CCCCCN(CC#CC#CC(C)(C)C)CCNC(=O)CS(=O)(=O)c1cccc2ccccc12 [Example 30, N-[2-[N'-Pentyl-(6,6-dimethyl-2,4-heptadiynyl)amino]ethyl]-(1-naphthylsulfonyl)acetamide] | 75
11 | CCCCN(CC#CC#CC(C)(C)C)CCNC(=O)CSc1cccc2ccccc12 [Example 34, N-[2-[N'-Butyl-(6,6-dimethyl-2,4-heptadiynyl)amino]ethyl]-(1-naphthylthio)acetamide] | 61
12 | CC(C)CCCN(CC#CC#CC(C)(C)C)CCNC(=O)CSc1cccc2ccccc12 [Example 36, N-[2-[N'-(4-Methylpentyl)-(6,6-dimethyl-2,4-heptadiynyl)amino]ethyl]-(1-naphthylthio)acetamide] | 75
13 | CCCCC/C=C\C/C=C\CCCCCCCC(=O)NC(C)c1ccccc1 (stereo not drawn) [Melinamide, N-(α-methylbenzyl)linoleamide, reference compound] | 15
14 | CN(C)c1ccc(NC(=O)N(Cc2cccc(CN(C(=O)Nc3ccc(N(C)C)cc3)C3CCCCCC3)c2)C2CCCCCC2)cc1.Cl.Cl [YM-17E, 1,3-bis[[1-cycloheptyl-3-(p-dimethylaminophenyl)ureido]methyl]-benzene dihydrochloride, reference compound] | 50

Test system: absorption of cholesterol
Experiment: Cholesterol absorption inhibitory activity in rat
Type: in vivo, Sprague-Dawley rats
Conditions: 100 mg/kg oral; [3H] cholesterol emulsion; serum radioactivity 4 hours after administration
Description: Cholesterol absorption inhibitory activity is determined by the method described in Fukushima et al., Journal of Atherosclerosis Research, 10, 403 (1969).
That is, Sprague-Dawley rats of 7 weeks age weighing 200 to 250 g are divided into groups at random and fed for 7 days with free access to diet. Then, the compound of the present invention and [^3 H] cholesterol emulsion (suspension of 6.96 mg of cholesterol and 177 mg of triolein in 0.8 ml of 6.8% skimmed milk aqueous solution) prepared into a dose indicated are forcedly given orally (Experiment Group).
As a control group, the solvent used to suspend the compound of the present invention instead of the compound of the present invention in Experiment Group and [^3 H] cholesterol emulsion are forcedly administered orally.
Four hours after administration, blood is collected from the tail. The cholesterol absorption inhibitory activity of the compound is determined in terms of the radiation activity of [^3 H) observed in serum by comparing between the control group and the experiment group. Inhibition rate (%) at 100 mg/kg is calculated and the results are shown in the following table together with the result of YM-17E used as a reference compound.

Row | SMILES | Inhibition Rate at 100 mg/kg [%]
15 | CCCCCN(C/C=C/C#CC(C)(C)C)CCNC(=O)CSc1ccc2ccccc2c1 [Example 6, (E)-N-[2-[N'-Pentyl-(6,6-dimethyl-2-hepten-4-ynyl)amino]ethyl]-(2-naphthylthio)acetamide] | 73
16 | CN(C)c1ccc(NC(=O)N(Cc2cccc(CN(C(=O)Nc3ccc(N(C)C)cc3)C3CCCCCC3)c2)C2CCCCCC2)cc1.Cl.Cl [YM-17E, 1,3-bis[[1-cycloheptyl-3-(p-dimethylaminophenyl)ureido]methyl]-benzene dihydrochloride, reference compound] | 63
